In US20250034194A1, “INHIBITORS OF ABNORMAL PHOSPHORYLATION AND TAU PROTEIN AGGREGATION” (UNIVERSITE DE PICARDIE JULES VERNE, priority 2021, published 2025):

Columns and labels:
SH-SY5Y = assay: Cytotoxicity study, MTT test; assay type: cell-based; details: differentiated SH-SY5Y; 0.1 to 100 μg/mL; 24 hours
Protocol: In order to evaluate the level of toxicity of these molecules according to their concentration in the cellular environment, an MTT test (3-(4,5-dimethylthiazol-2-yl)-2,5-diphenyl tetrazolium bromide) is carried out (FIGS. 11 and 12) upstream of the phosphorylation tests in cellulo.
SH-SY5Y (ATCC-CRL-2266) are developed in Dulbecco's Modified Eagle Complete Medium (DMEM-GlutaMAX™, Life Technologies) with 10% foetal bovine serum (FBS) and 1% penicillin/streptomycin in an incubator at 37° C. with 5% CO2.
For this, the SH-SY5Y cells are cultured in a 6-well plate at a cell density of 200,000 cells/well and are differentiated using retinoic acid (10 μM, Sigma Aldrich) for 5 days. On day 6, the cells are brought into contact with LG2A molecules at different concentrations (0.1, 1, 10 or 100 μg/mL), in a final volume of 2 mL. After 24 hours, MTT (5 μg/mL; Sigma-Aldrich) is added to the cell medium for 2 hours at 37° C. Then the medium is removed and 200 μL of pure dimethylsulfoxide (DMSO, Sigma-Aldrich) are added to each well. The entire contents of each well are transferred to a 96-well plate and the absorbance is measured at 562 nm using the Infinite M1000 spectrofluorometer (Tecan).

[1] = tested on: tau phosphorylation (S262 site) in SH-SY5Y cells; assay: In cellulo tau phosphorylation test in the SH-SY5Y line (H2O2 stress induction); assay type: cell-based; details: 24 hours, then H2O2
Protocol: The tau phosphorylation induction model on the SH-SY5Y cell line described in the Gly-CRRET laboratory article was used here (Sepulveda-Diaz et al., 2015).
In short, SH-SY5Y cells are seeded in 6-well plates and differentiated using retinoic acid (10 μM, Sigma Aldrich) for 5 days. On day 6, the cells are placed in the presence of the Mal16diS and Mal18diS molecules at different concentrations (1, 10 or 100 μg/mL), in a final volume of 2 mL simultaneously with a well not receiving molecules. After 24 hours, the molecules are removed and the stress inducer (H2O2, Sigma Aldrich) is added to the cell medium for 30 minutes. The cells are then rinsed with 1×PBS then lysed and recovered in RIPA buffer (Thermo Fisher). The protein extracts from the cells (10 μg) are then analysed by western blot according to the same procedure described above.
The tau phosphorylation site studied here is the S262 site (Thermo Fisher), normalized to the expression of the GAPDH protein (Sigma Aldrich). The bands are quantified using the Odyssey software of the LI-COR device allowing the p-tau/GAPDH ratio to be calculated for each of the conditions. The ratio obtained for each concentration of molecule is then expressed as a percentage of the ratio obtained for the control cells, i.e., not treated by the molecules. Thus a value less than 100% corresponds to protection provided by the molecules in this cellular model of tau phosphorylation induction.
The experiment was repeated at least 4 times for each molecule dose for the “Mal16diS” and “Mal18diS” molecules and at least twice for the “Cell16diS” and “Lac16diS” molecules. The mean and standard deviation of the replicates are shown in FIGS. 13 to 16; each of the values obtained for each dose is compared to that of the control without addition of molecule by means of a t-test. Statistical differences with p-value <0.05 and <0.001 are represented by “*” and “***” respectively.

[2] = target: T1, tau protein (4R2N, 441 amino acids) (Homo sapiens, UniProt P10636); assay: In vitro abnormal tau phosphorylation by GSK3β, competition with heparin (western blot); assay type: biochemical; details: for ability to compete with heparin for abnormal tau phosphorylation by GSK3β / capacity to protect tau from its abnormal phosphorylation induced by heparin: molecule 60 μg/mL vs heparin 12 μg/mL; for ability to compete with heparin for abnormal tau phosphorylation by GSK3β: 1.5 to 6 h of reaction, AT270, Ser199/202; for capacity to protect tau from its abnormal phosphorylation induced by heparin: AT270 antibody
T1 construct: purchased Millipore (tau); Promega (GSK3β)
T1 sequence (P10636 1-441 isoform P10636-8): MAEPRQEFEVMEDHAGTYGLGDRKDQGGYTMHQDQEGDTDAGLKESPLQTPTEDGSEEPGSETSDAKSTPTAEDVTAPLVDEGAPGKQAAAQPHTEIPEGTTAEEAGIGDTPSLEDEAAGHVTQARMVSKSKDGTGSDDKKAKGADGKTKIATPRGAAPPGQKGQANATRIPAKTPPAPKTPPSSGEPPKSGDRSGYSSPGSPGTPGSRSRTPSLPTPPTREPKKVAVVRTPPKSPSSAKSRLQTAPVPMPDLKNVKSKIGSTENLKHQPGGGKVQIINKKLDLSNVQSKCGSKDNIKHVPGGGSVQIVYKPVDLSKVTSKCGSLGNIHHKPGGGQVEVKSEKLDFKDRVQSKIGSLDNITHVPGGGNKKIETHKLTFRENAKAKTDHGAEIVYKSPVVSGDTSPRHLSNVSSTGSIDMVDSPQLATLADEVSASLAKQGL
Text: Phosphorylation of tau protein is the most common post-translational modification to regulate tau activity and functions. The longest tau isoform (4R2N, 441 amino acids) containing 85 potential phosphorylation sites was used. In vitro phosphorylation of the tau protein is done by induction, on the one hand, (FIG. 5) and, on the other hand, according to a competition process between the LG2A molecules and heparin, conventionally used to induce abnormal tau phosphorylation in vitro (FIGS. 3, 4, 6, 7, 8, 9 and 10).
For abnormal tau phosphorylation tests, GSK3p, a kinase centrally involved in this process in the brains of subjects with Alzheimer's disease (AD), was used. Analysis of tau phosphorylation by GSK3b at sites characteristic of AD is possible by the western blot technique using specific antibodies that recognize abnormally phosphorylated sites in the brain or cerebrospinal fluid of AD subjects, such as the AT270 antibody which recognizes threonine 181 (Thr181), the PHF1 antibody which recognizes serines 396 and 404 (Ser396/Ser404), and the AT8 antibody, which recognizes the Ser199/Ser202/Thr205 site.
By competition: The tau protein (40 μg/mL) is phosphorylated by the GSK3β enzyme at 4 ng/mL (Promega) in the presence of ATP (Sigma-Aldrich) at 48 μM and protease inhibitors (Sigma-Aldrich, 1/100), in the buffer mentioned above. The ability of the LG2A molecules (60 μg/mL) to compete with heparin (12 μg/mL; Sigma-Aldrich) is evaluated. Thus if the signal in the presence of the molecules is less than that obtained with heparin alone, the molecules are then defined as “protectors” from abnormal tau phosphorylation.
In both systems (induction or competition), the tau protein is incubated at 37° C. with stirring in the presence of the different elements presented above. The reaction kinetics are monitored by taking 8 μL of the samples at 1.5 h, 3 h and 6 h of incubation. Loading buffer (Euromedex) and β-mercaptoethanol (Sigma-Aldrich) are added to each sample. The samples are then stored at −20° C. until analysis by western blot.
After denaturation of the samples by heating at 95° C. for 5 minutes, the samples are deposited simultaneously with the molecular weight marker (Precision Plus Protein™ Dual Color Standards; BIO-RAD) on a 10% acrylamide gel placed in an electrophoresis tank containing migration buffer (0.25 M Tris; 1.6 M Glycine; […]; pH 8.6).
The controls used for this phosphorylation experiment followed by western blot are: • the “native tau” protein, that is to say the non-phosphorylated tau protein. • the tau protein phosphorylated by GSK3b alone in the absence of heparin. • the tau protein phosphorylated in the presence of heparin, denoted “tau+heparin”. • the “external standard” corresponding to the tau protein phosphorylated in the presence of heparin for 3 h. This standard is carried out in an experiment independently of the phosphorylation experiments in the presence of LG2A compounds. It ensures that the western blot is carried out correctly.
Then the membrane is incubated overnight with stirring at +4° C. in a solution of PBS, 0.1% Tween and 1% milk containing the primary antibody specific for tau phosphorylation sites (AT270, ThermoScientific or S199-202, Millipore).
After incubation of the PVDF membrane in the chosen primary antibody, a succession of 3 washes of 5 minutes of the membrane is carried out in PBS and 0.1% Tween with stirring and the membrane is incubated for 1 h with stirring at room temperature in a solution of 1×PBS, 0.1% Tween and 1% milk containing the diluted secondary antibody (Jackson Immuno-Research).

[3] = target: T1, tau protein (4R2N, 441 amino acids); details: GSK3β; FIG. 2, Sepulveda-Diaz et al, 2015; cited from earlier work

Compound | ability to compete with heparin for abnormal tau phosphorylation by GSK3β [2] | capacity to protect tau from its abnormal phosphorylation induced by heparin [2] | other results
CCCCCCCCCCCCCCCCCCNC(=O)[C@H](O)[C@@H](O)[C@H](O[C@H]1OC(COS(=O)(=O)[O-])[C@@H](O)C(O)[C@@H]1O)[C@H](O)COS(=O)(=O)[O-].[Na+].[Na+] (stereo partly drawn) [Mal18diS, N-Octadecyl-6,6′-Di-O-Sulfo-D-Maltobionamide Disodium] | total competition with heparin |  | cytotoxicity (MTT) (SH-SY5Y): not cytotoxic; reduction in tau phosphorylation (S262, p-tau/GAPDH) compared to untreated cells ([1]; 1 μg/mL): ~30%; reduction in tau phosphorylation (S262, p-tau/GAPDH) compared to untreated cells ([1]; 10 μg/mL): ~30%; reduction in tau phosphorylation (S262, p-tau/GAPDH) compared to untreated cells ([1]; 100 μg/mL): up to 60%; abnormal phosphorylation of tau (p-tau) revealed by AT270 and Ser199/202 antibodies ([2]; in presence of heparin, after 3 h of reaction): inhibited
CCCCCCCCCCCCCCNC(=O)[C@H](O)[C@@H](O)[C@H](O)[C@H](O)CO[C@H]1O[C@H](COS(=O)(=O)[O-])[C@H](O)[C@H](O)[C@H]1O.[Na+] [Mel14monoS, N-Tetradecyl-6′-O-Sulfo-Melibioamide Sodium] | do not compete with heparin |  | 
N-Octadecyl-Tri-O-Sulfo-D-Maltobioamide Trisodium [Mal18triS] |  | maintenance of this capacity to protect tau | 
CCCCCCCCCCCCCCCCNC(=O)C(OS(=O)(=O)[O-])C(OS(=O)(=O)[O-])C(OC1OC(COS(=O)(=O)[O-])C(OS(=O)(=O)[O-])C(OS(=O)(=O)[O-])C1OS(=O)(=O)[O-])C(COS(=O)(=O)[O-])OS(=O)(=O)[O-].[Na+].[Na+].[Na+].[Na+].[Na+].[Na+].[Na+].[Na+] [Mal16perS, N-Hexadecyl-Per-O-Sulfo-D-Maltobioamide Sodium Salt] |  | retains its ability to protect tau | 
N-Hexadecyl-D-Glucuronyl-(α-1,4)-D-Xyluronamide [Mal16diOx] |  | less effective than disulphated maltobionamide compounds with the same chain length | 
N-Octadecyl-D-Glucuronyl-(α-1,4)-D-Xyluronamide [Mal18diOx] | does not compete with heparin |  | 
N-Hexadecyl-6,6′-Di-O-Sulfo-Lactobioamide Disodium [Lac16diS] | total competition with heparin |  | reduction in tau phosphorylation (S262, p-tau/GAPDH) compared to untreated cells ([1]; 1 μg/mL): 25%; reduction in tau phosphorylation (S262, p-tau/GAPDH) compared to untreated cells ([1]; 100 μg/mL): 54%
N-Octadecyl-6,6′-Di-O-Sulfo-D-Cellobioamide Disodium [Cell18diS] | total competition with heparin |  | 
N-Hexadecyl-Tri-O-Sulfo-D-Maltobioamide Trisodium [Mal16triS] |  | maintenance of this capacity to protect tau | 
CCCCCCCCCCCCCCCCNC(=O)[C@H](O)[C@@H](O)[C@H](O)[C@H](O)CO[C@H]1O[C@H](COS(=O)(=O)[O-])[C@H](O)[C@H](O)[C@H]1O.[Na+] [Mel16monoS, N-Hexadecyl-6′-O-Sulfo-Melibioamide Sodium] | do not compete with heparin |  | 
heparin |  |  | phosphorylation of tau on sites characteristic of AD in the presence of heparin [3]: phosphorylation at all tau sites takes place
N-Octadecyl-6 or 6′-O-Sulfo-D-Maltobioamide Sodium [Mal18monoS] |  | slight loss of the protective capacity | 
CCCCCCCCCCCCCCCCCCNC(=O)C(O)C(O)C(O)C(O)COC1OC(COS(=O)(=O)[O-])C(O)C(O)C1O.[Na+] (centres unmarked) [Mel18monoS, N-Octadecyl-6′-O-Sulfo-Melibioamide Sodium] | do not compete with heparin |  | 
N-Hexadecyl-6,6′-Di-O-Sulfo-D-Cellobioamide Disodium [Cell16diS] | total competition with heparin |  | reduction in tau phosphorylation (S262, p-tau/GAPDH) compared to untreated cells ([1]; 1 μg/mL): approximately 34%; reduction in tau phosphorylation (S262, p-tau/GAPDH) compared to untreated cells ([1]; 10 μg/mL): 17%; reduction in tau phosphorylation (S262, p-tau/GAPDH) compared to untreated cells ([1]; 100 μg/mL): 20%
N-Hexadecyl-6 or 6′-O-Sulfo-D-Maltobioamide Sodium [Mal16monoS] |  | slight loss of the protective capacity | 
N-Octadecyl-6,6′-Di-O-Sulfo-Lactobioamide Disodium [Lac18diS] | total competition with heparin |  | 
